Measurements reported in patent publication US20170029355A1, “LABILE ESTERS OF AGROCHEMICALS FOR CONTROLLED RELEASE AND REDUCTION OF OFF-SITE MOVEMENT” (Monsanto Technology LLC, priority 2011, published 2017).

Assays:
broadleaf weeds = test: Control of broadleaf weeds by ester concentrates (statements of the description); type: in vivo
morning glory = test: Field testing of emulsifiable concentrates, post-emergent control (Example 38); type: in vivo
Source text: (§1) Four dicamba esters, 1a, 2, 9, and 13a, were formulated as emulsifiable concentrates for field testing. All formulations contained 5% each of a alkylbenzene sulfonate calcium salt (Huntsman NANSA EVM 62/H or Akzo Nobel WITCONATE P-1220 EH) and castor oil ethoxylate (Huntsman SURFONIC CO-54) as the emulsifiers and Aromatic 200 (Exxon) or monochlorobenzene (MCB) as the solvent.
(§2) The esters were compared to the diglycolamine salt of dicamba (CLARITY™) for post-emergent control of three broadleaf weeds: velvetleaf, morning glory, and hemp sesbania. Rates of 280 and 420 g dicamba acid equivalent per hectare were used. […] Evaluations were conducted at 11 or 21 days after treatment. Locations and timing were identical for all formulations tested.

velvetleaf [1] = test: as above; type: in vivo
Source text: as §1, §2

hemp sesbania = test: as above; type: in vivo
Source text: as §1, §2

[2] = In vitro photo-release and hydrolytic release of dicamba in an aqueous medium (Example 35); type: physicochemical; details: 0.01 mM ester, 35° C.
Method: This Example describes the determination of photo-lability and hydrolytic lability of dicamba esters in an aqueous medium. 1 mM solutions of the esters were prepared in acetonitrile (or […] solutions of dicamba diesters). The solutions were then diluted with deionized water to a concentration of 0.01 mM (or 0.005 mM for diesters). The solutions were then transferred to quartz tubes and amber bottles and held in a growth chamber by the procedure of Example 26. A 14-hour day was generally used at a constant temperature of 35° C. Hydrolytic activity was assessed by measuring the increase in dicamba concentration after day zero in the amber (dark) bottles. […] Photolysis manifested itself as increased conversion in the quartz tubes compared to the dark control.

velvetleaf [3] = test: Greenhouse post-emergent control of velvetleaf by emulsifiable concentrates (Example 29); type: in vivo; details: three weeks after treatment
Method: The efficacy of some photo-labile ester formulations from Example 28 for post-emergent control of velvetleaf was tested in the greenhouse. All formulations were tested at rates of 140, 280, 420, and 560 g dicamba equivalent per hectare rates and compared to the diglycolamine salt of dicamba (CLARITY®) at the same rates and untreated control plants. The velvetleaf plants were 10-15 cm in height at the time of spraying. Percent control was evaluated three weeks after treatment.

[4] = In vitro dicamba photo-release from photo-labile dicamba esters, tetrahydrofuran solvent (Example 26); type: physicochemical; details: THF, 0.1 mM ester
Method: This Example describes in vitro testing of dicamba photo-release by homogeneous solutions of photo-labile dicamba esters. The esters were dissolved in tetrahydrofuran (THF). Ester concentration was 0.1 mM. 25 ml of the solution was transferred to 22 mm tubes fabricated from graded seal quartz tubing with a 19/22 tapered seal at the top, which was closed with a tapered glass plug and secured with a plastic ring clamp. The solution was entirely below the quartz-to-glass transition, ensuring that the entire volume was exposed to the full spectrum.
The sealed tubes were placed in a Growth Chamber where they were exposed to simulated sunlight for 14 hours per day at 35° C. Dicamba concentrations in the solution were measured during the course of the photolysis.
A sample of the initial solution was reserved in a glass vial away from the light source and analyzed at the conclusion of the study, providing a measurement of the amount of dicamba present without illumination of the photolysis solution (the “dark control”).

[5] = tested on: glyphosate-tolerant, dicamba-sensitive soy plants; test: Humidome volatility injury to dicamba-sensitive plants (Example 31); details: assessed after three weeks in greenhouse
Source text: In this case, the diglycolamine salt of dicamba (CLARITY®) was used for comparison.
Dicamba photo-labile ester formulations from Example 28 were mixed with a commercial glyphosate formulation (ROUNDUP POWERMAX®) and diluted to provide a solution with a 0.5% dicamba equivalent concentrate of the ester (or dicamba diglycolamine salt) and 1.5% concentrate of glyphosate. The mixtures were sprayed at a 10 gallon per acre (93.5 liters per hectare) rate on soil in a plastic container (“humidome”) with a transparent lid. One soil container was sprayed with water as a control. Four glyphosate-tolerant, dicamba-sensitive soy plants between V2 and V3 stage were immediately placed on the sprayed soil and the domes attached to the trays with binder clips. The soy plants were in pots placed directly on the soil but with aluminum foil wrapped around the bottom to prevent uptake of dicamba or dicamba esters through the roots.
The closed containers were held for 24 hours in a growth chamber which was maintained at 35° C. with 40% relative humidity. The plants were then removed and grown in a greenhouse for three weeks. At this time plant injury and growth stage were assessed compared to the control treated with water only.

[6] = 280 and 420 g dicamba acid equivalent per hectare
[7] = 280 g dicamba acid equivalent per hectare, 11 or 21 days after treatment
[8] = 420 g dicamba acid equivalent per hectare, 11 or 21 days after treatment

Compound: COc1c(Cl)ccc(Cl)c1C(=O)OCCc1ccccc1[N+](=O)[O-] [Ester 2, 2-Nitrophenethyl Ester of Dicamba]
- control of a number of broadleaf weeds in field testing, in words (broadleaf weeds; emulsifiable and suspension concentrates, Sesbania macrocarpa, morning glory, velvetleaf, Palmer amaranth, fat hen, sicklepod): proven effective
- field efficacy for control of broadleaf weeds compared with the diglycolamine salt of dicamba, in words (broadleaf weeds; field tests of emulsifiable concentrates): slightly more effective than the diglycolamine salt of dicamba
- post-emergent control of morning glory compared with the dicamba salt, in words (morning glory; [6]): equivalent to the dicamba salt
- % control, 280 g/ha, Morning glory (morning glory; [7]): 94%
- % control, 420 g/ha, Morning glory (morning glory; [8]): 95%
- post-emergent control of velvetleaf compared with the dicamba salt, in words (velvetleaf [1]; [6]): equivalent to the dicamba salt
- % control, 280 g/ha, Velvetleaf (velvetleaf [1]; [7]): 85%
- % control, 420 g/ha, Velvetleaf (velvetleaf [1]; [8]): 92%
- post-emergent control of hemp sesbania compared with the dicamba salt, in words (hemp sesbania; [6]): equivalent to the dicamba salt
- % control, 280 g/ha, Hemp sesbania (hemp sesbania; [7]): 92%
- % control, 420 g/ha, Hemp sesbania (hemp sesbania; [8]): 97%
- Conversion to Dicamba, Dark, Day 0 ([2]; amber (dark) bottle, Day 0): 3%
- Conversion to Dicamba, Dark, Day 1 ([2]; amber (dark) bottle, Day 1): 3%
- Conversion to Dicamba, Dark, Day 2 ([2]; amber (dark) bottle, Day 2): 3%
- Conversion to Dicamba, Dark, Day 3 ([2]; amber (dark) bottle, Day 3): 3%
- Conversion to Dicamba, Dark, Day 4 ([2]; amber (dark) bottle, Day 4): 3%
- Conversion to Dicamba, Dark, Day 7 ([2]; amber (dark) bottle, Day 7): 3%
- Conversion to dicamba, Dark, Day 10 ([2]; amber (dark) bottle, Day 10): 3%
- Conversion to Dicamba, Dark, Day 14 ([2]; amber (dark) bottle, Day 14): 3%
- Conversion to Dicamba, Dark, Day 21 ([2]; amber (dark) bottle, Day 21): 3%
- Conversion to Dicamba, Dark, Day 28 ([2]; amber (dark) bottle, Day 28): 3%
- Conversion to Dicamba, Light, Day 0 ([2]; quartz tube, 14-hour day, Day 0): 3%
- Conversion to Dicamba, Light, Day 1 ([2]; quartz tube, 14-hour day, Day 1): 78%
- Conversion to Dicamba, Light, Day 2 ([2]; quartz tube, 14-hour day, Day 2): 79%
- Conversion to Dicamba, Light, Day 3 ([2]; quartz tube, 14-hour day, Day 3): 75%
- Conversion to Dicamba, Light, Day 4 ([2]; quartz tube, 14-hour day, Day 4): 77%
- Conversion to Dicamba, Light, Day 7 ([2]; quartz tube, 14-hour day, Day 7): 78%
- Conversion to dicamba, Light, Day 10 ([2]; quartz tube, 14-hour day, Day 10): 84%
- Conversion to Dicamba, Light, Day 14 ([2]; quartz tube, 14-hour day, Day 14): 82%
- Conversion to Dicamba, Light, Day 21 ([2]; quartz tube, 14-hour day, Day 21): 83%
- Conversion to Dicamba, Light, Day 28 ([2]; quartz tube, 14-hour day, Day 28): 86%
- % Control of velvetleaf, 140 g/ha (velvetleaf [3]; 140 g dicamba equivalent per hectare): 50%
- % Control of velvetleaf, 280 g/ha (velvetleaf [3]; 280 g dicamba equivalent per hectare): 69%
- % Control of velvetleaf, 420 g/ha (velvetleaf [3]; 420 g dicamba equivalent per hectare): 78%
- % Control of velvetleaf, 560 g/ha (velvetleaf [3]; 560 g dicamba equivalent per hectare): 90%
- Dark Control % dicamba ([4]; initial solution kept away from the light source, analyzed at conclusion of study): 0%
- Conversion to dicamba, 1 day ([4]; simulated sunlight 14 hours per day, 35° C., 1 day): 46%
- Conversion to dicamba, 2 days ([4]; simulated sunlight 14 hours per day, 35° C., 2 days): 54%
- Conversion to dicamba, 3 days ([4]; simulated sunlight 14 hours per day, 35° C., 3 days): 72%
- Conversion to dicamba, 5 days ([4]; simulated sunlight 14 hours per day, 35° C., 5 days): 84%
- Conversion to dicamba, 7 days ([4]; simulated sunlight 14 hours per day, 35° C., 7 days): 88%
- Conversion to dicamba, 9 days ([4]; simulated sunlight 14 hours per day, 35° C., 9 days): 98%
- Conversion to dicamba, 12 days ([4]; simulated sunlight 14 hours per day, 35° C., 12 days): 96%
- Conversion to dicamba, 15 days ([4]; simulated sunlight 14 hours per day, 35° C., 15 days): 95%
- % Injury ([5]; soy plants 24 hours in closed humidome over sprayed soil (0.5% dicamba equivalent + 1.5% glyphosate), 35° C.): 13%
- Growth Stage ([5]; soy plants 24 hours in closed humidome over sprayed soil): 9
